Where two headings read alike, the source gives them in different places.
Legend:
[1] = test system: human peripheral blood mononuclear cells (PBMC); experiment: Effects on human T-cell proliferation in vitro (3H-thymidine incorporation); format: cell-based; details: Homo sapiens, PBMC, read-out: Percentage of inhibition of proliferation of stimulated PBMC
Procedure: The influence of the various test compounds at two different concentrations (50 μM and 10 μM) on cell proliferation of human peripheral blood mononuclear cells (PBMC) was assessed. […] The cells were pulsed with 1 μCi of ^3H-thymidine (Amersham, USA) per well during the last 18 h of the culture, and were harvested on the 96-well filter (Packard Bioscience, USA) using a multiple cell harvester (Packard, USA). The incorporation of ^3H-thymidine in activated cells were measured using TopCount NXT (Packard, USA). […] The positive control refers to LPS-, PMA- or zymosan-stimulated samples that were not treated with test compounds.

Hep G2 = experiment: Cytotoxicity assay (MTT), Hep G2 cell line; format: cell-based; details: 24 h
Procedure: (§1) To determine whether the anti-inflammatory activity of the test compounds was due to observed inhibition of cytokine production and inhibition of proliferation in vitro, and was not a consequence of cellular cytotoxicity, measurement of succinate dehydrogenase activity in living cells was performed. Cells were cultured for 24 h in RPM medium as described above at 37° C. the presence of the test compounds at concentrations of 50 μM and 12.5 μM. MTT [3-(4,5-dimethylthiazole-2-yl)-2,5-diphenyl tetrazolium bromide] (Promega, USA), a detection reagent, was then added and the cultures were incubated for 0.5-2 h. The amount of MTT-Formazan produced was determined using a spectrophotometer at 490 nm (Mosmann, J. Immunol. Methods, 1983, 65: 55-63).
(§2) The percentage of inhibition of cell growth was calculated using the following formula: % inhibition of cell growth=[…].

A549 = experiment: Cytotoxicity assay (MTT), A549 cell line; format: cell-based; details: 24 h
Procedure: as §1, §2

TNF-α [2] = experiment: Lipopolysaccharide induced TNF-α production in Balb/cJ mice; format: in vivo; details: Mus musculus, ip, 1.5 h, read-out: % inhibition of TNF-α production (plasma)
Procedure: Male Balb/cJ mice (Iffa Credo, France) weighing 25-33 g were randomly grouped (n=7 in test group, 7 in positive control group, 4 in negative control group). Test compounds, as well as vehicle [0.125% carboxymethyl-cellulose (Sigma, USA)], were administered to the mice intraperitoneally. Test compounds were administered at a dose of 10 mg/kg of body weight, in a volume of 10 mL/kg of body weight. Thirty minutes later, a sterile solution of lipopolysaccharide (LPS) (Sigma, USA) in saline was intraperitoneally administered at a concentration and volume of 25 μg/0.2 mL/mouse to each animal, except those in negative control. Ninety minutes following administration, all animals were sacrificed by puncturing a. carotis communis. The plasma concentration of TNF-α was determined by sandwich ELISA, using capture and detection antibodies (R&D, USA) according to manufacturer's recommendations. Results are presented in the following table as percent of inhibition of TNF-α production in comparison to the positive control (stimulated, but untreated animals).

TNF-α [3] = experiment: Inhibition of TNF-α production by stimulated human peripheral blood leukocytes in vitro; format: cell-based; details: Homo sapiens, Leukocyte, read-out: Percentage of inhibition of TNF-α production
Method in brief: (§3)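 Cytokines in supernatants measured by sandwich ELISA after overnight stimulation (2 μg/mL LPS, 1 μg/mL PMA or 120 μg/mL zymosan) of healthy-donor leukocytes pretreated 2 h with 10 or 50 μM compound. Percent inhibition calculated relative to stimulated cells lacking compound.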

IL-1α = experiment: Inhibition of IL-1 production by stimulated human peripheral blood leukocytes in vitro; format: cell-based; details: Homo sapiens, Leukocyte, read-out: Percentage of inhibition of IL-1α production
IL-6 = experiment: Inhibition of IL-6 production by stimulated human peripheral blood leukocytes in vitro; format: cell-based; details: Homo sapiens, Leukocyte, read-out: Percentage of inhibition of IL-6 production
Method in brief: as §3

IL-8 = experiment: Inhibition of IL-8 production by stimulated human peripheral blood leukocytes in vitro; format: cell-based; details: Homo sapiens, Leukocyte, read-out: Percentage of inhibition of IL-8 production
Method in brief: as §3

Row | SMILES | Percentage of inhibition of cell growth (Hep G2; 12.5 μM) [%] | Percentage of inhibition of cell growth (Hep G2; 50 μM) [%] | Percentage of inhibition of cell growth (A549; 12.5 μM) [%] | Percentage of inhibition of cell growth (A549; 50 μM) [%] | inhibition at 10 µM (TNF-α [3]; LPS-stimulated PBL) [%] | inhibition at 10 µM (TNF-α [3]; PMA-stimulated PBL) [%] | inhibition at 10 µM (TNF-α [3]; zymosan-stimulated PBL) [%] | inhibition at 50 µM (TNF-α [3]; LPS-stimulated PBL) [%] | inhibition at 50 µM (TNF-α [3]; PMA-stimulated PBL) [%] | inhibition at 50 µM (TNF-α [3]; zymosan-stimulated PBL) [%] | inhibition at 10 µM (IL-1α; LPS-stimulated PBL) [%] | inhibition at 10 µM (IL-1α; PMA-stimulated PBL) [%] | inhibition at 10 µM (IL-1α; zymosan-stimulated PBL) [%] | inhibition at 50 µM (IL-1α; LPS-stimulated PBL) [%] | inhibition at 50 µM (IL-1α; PMA-stimulated PBL) [%] | inhibition at 50 µM (IL-1α; zymosan-stimulated PBL) [%] | inhibition at 10 µM (IL-6; LPS-stimulated PBL) [%] | inhibition at 10 µM (IL-6; PMA-stimulated PBL) [%] | inhibition at 10 µM (IL-6; zymosan-stimulated PBL) [%] | inhibition at 50 µM (IL-6; LPS-stimulated PBL) [%] | also measured
1 | CC[C@H]1OC(=O)[C@H](C)[C@@H](O[C@H]2C[C@@](C)(OC)[C@@H](OC(=O)CCN3CCN(CCCN(CC)CC)CC3)[C@H](C)O2)[C@H](C)[C@@H](O[C@@H]2O[C@H](C)C[C@H](N(C)C)[C@H]2O)[C@](C)(OC)C[C@@H](C)C(=O)N[C@H](C)[C@@H](O)[C@]1(C)O [Example 31] | 0 | 0 | 0 | 0 | – | – | – | – | – | – | – | – | – | – | – | – | – | – | – | – | inhibition at 10 µM ([1]; PHA): 23%; inhibition at 50 µM ([1]; PHA): 99%; inhibition at 10 µM ([1]; PMA + iono.): 24%; inhibition at 50 µM ([1]; PMA + iono.): 91%; inhibition in vivo at 10 mg/kg (TNF-α [2]; 10 mg/kg intraperitoneally, 30 min before LPS, 90 min after LPS): 92%
2 | CC[C@H]1OC(=O)[C@H](C)[C@@H](O[C@H]2C[C@@](C)(OC)[C@@H](OCCCN(CC)CC)[C@H](C)O2)[C@H](C)[C@@H](O[C@@H]2O[C@H](C)C[C@H](N(C)C)[C@H]2O)[C@](C)(OC)C[C@@H](C)C(=O)N[C@H](C)[C@@H](O)[C@]1(C)O [Example 73, 4″-O-(3-Diethylaminopropyl)-6-O-methyl-9a-aza-9a-homoerythromycin A] | 0 | 0 | 0 | 0 | – | – | – | – | – | – | – | – | – | – | – | – | – | – | – | – | inhibition in vivo at 10 mg/kg (TNF-α [2]): 90%
3 | CC[C@H]1OC(=O)[C@H](C)[C@@H](O[C@H]2C[C@@](C)(OC)[C@@H](OC(=O)CCN3CC(C)CC(C)C3)[C@H](C)O2)[C@H](C)[C@@H](O[C@@H]2O[C@H](C)C[C@H](N(C)C)[C@H]2O)[C@](C)(OC)C[C@@H](C)C(=O)N[C@H](C)[C@@H](O)[C@]1(C)O (stereo partly drawn) [Example 37] | 3 | 19 | 1 | 0 | 15 | 28 | 17 | 76 | 45 | 96 | 60 | 14 | 49 | 69 | 25 | 98 | 20 | 41 | 21 | 78 | inhibition at 50 µM (IL-6; PMA-stimulated PBL): 57%; inhibition at 50 µM (IL-6; zymosan-stimulated PBL): 100%; inhibition at 10 µM (IL-8; LPS-stimulated PBL): 14%; inhibition at 10 µM (IL-8; PMA-stimulated PBL): 17%; inhibition at 10 µM (IL-8; zymosan-stimulated PBL): 27%; inhibition at 50 µM (IL-8; LPS-stimulated PBL): 0%; inhibition at 50 µM (IL-8; PMA-stimulated PBL): 10%; inhibition at 50 µM (IL-8; zymosan-stimulated PBL): 0%
4 | CC[C@H]1OC(=O)[C@H](C)[C@@H](O[C@H]2C[C@@](C)(OC)[C@@H](OC(=O)CCN(CC)CC)[C@H](C)O2)[C@H](C)[C@@H](O[C@@H]2O[C@H](C)C[C@H](N(C)C)[C@H]2O)[C@](C)(OC)C[C@@H](C)C(=O)[C@H](C)[C@H]2N(C)C(=O)O[C@]12C [Example 10, 11,12-(N-Methyl-carbamate)-11,12-dideoxy-4-O-(3-diethylaminopropionyl)-6-O-methyl-erythromycin A] | 0 | 5 | 12 | 6 | 49 | 41 | 14 | 86 | 62 | 72 | 44 | 30 | 48 | 41 | 0 | 49 | 14 | 12 | 19 | 71 | inhibition at 50 µM (IL-6; PMA-stimulated PBL): 18%; inhibition at 50 µM (IL-6; zymosan-stimulated PBL): 39%; inhibition at 10 µM (IL-8; LPS-stimulated PBL): 27%; inhibition at 10 µM (IL-8; PMA-stimulated PBL): 0%; inhibition at 10 µM (IL-8; zymosan-stimulated PBL): 28%; inhibition at 50 µM (IL-8; LPS-stimulated PBL): 52%; inhibition at 50 µM (IL-8; PMA-stimulated PBL): 42%; inhibition at 50 µM (IL-8; zymosan-stimulated PBL): 36%; inhibition at 10 µM ([1]; PHA): 71%; inhibition at 50 µM ([1]; PHA): 98%; inhibition at 10 µM ([1]; PMA + iono.): 3%; inhibition at 50 µM ([1]; PMA + iono.): 100%
5 | CC[C@H]1OC(=O)[C@H](C)[C@@H](O[C@H]2C[C@@](C)(OC)[C@@H](OC(=O)CCN3CCN(CCOCCO)CC3)[C@H](C)O2)[C@H](C)[C@@H](O[C@@H]2O[C@H](C)C[C@H](N(C)C)[C@H]2O)[C@](C)(OC)C[C@@H](C)C(=O)N[C@H](C)[C@@H](O)[C@]1(C)O [Example 18] | 5 | 3 | 0 | 0 | 9 | 38 | 21 | 12 | 57 | 30 | 16 | 34 | 51 | 45 | 68 | 90 | 10 | 33 | 34 | 23 | inhibition at 50 µM (IL-6; PMA-stimulated PBL): 61%; inhibition at 50 µM (IL-6; zymosan-stimulated PBL): 63%; inhibition at 10 µM (IL-8; LPS-stimulated PBL): 6%; inhibition at 10 µM (IL-8; PMA-stimulated PBL): 7%; inhibition at 10 µM (IL-8; zymosan-stimulated PBL): 25%; inhibition at 50 µM (IL-8; LPS-stimulated PBL): 0%; inhibition at 50 µM (IL-8; PMA-stimulated PBL): 0%; inhibition at 50 µM (IL-8; zymosan-stimulated PBL): 22%
